Data taken from the NIST ThermoML archive (doi:10.1021/je3002078).
± gives the expanded uncertainty stated by the source.

Settings: Liquid; for mass density: 101.33 kPa, Vibrating tube method; for vapor or sublimation pressure: Ebulliometric method (Recirculating still)

Row | Structure (SMILES) | mass density (303.15 K) | mass density (308.15 K) | vapor or sublimation pressure (474.01 K) | vapor or sublimation pressure (489.79 K) | vapor or sublimation pressure (442.28 K) | vapor or sublimation pressure (399.89 K)
1 | CN1CCCC1=O [N-methylpyrrolidone] | 1023.45 ± 0.51 kg/m3 | 1013.34 ± 0.51 kg/m3 | 95.3 ± 7.1 kPa |  |  | 
2 | OCCc1ccccc1 [2-phenylethanol] | 1012.65 ± 0.51 kg/m3 | 1008.68 ± 0.51 kg/m3 |  | 95.3 ± 7.1 kPa |  | 
3 | NCCO [2-aminoethan-1-ol] | 1008.12 ± 0.51 kg/m3 | 1005.08 ± 0.51 kg/m3 |  |  | 95.3 ± 7.1 kPa | 
4 | OCCCl [1-chloro-2-hydroxyethane] | 1192.48 ± 0.53 kg/m3 | 1186.44 ± 0.53 kg/m3 |  |  |  | 95.3 ± 7.1 kPa
